Source: ChEMBL document CHEMBL1144109, “Structures and cytotoxicity relationship of isoaaptamine and aaptamine derivatives” (J Nat Prod, 1999)
In brackets after ≈: the same amount, converted by molar mass.

Assays:
Type in all cases: functional, cell-based
[1] = system: P388; assay: Cytotoxicity against mouse P388 cells after 3 days by MTT assay; settings: P388, 72 h
[2] = Cytotoxicity against human KB16 cells after 3 days by MTT assay; settings: KB16, 72 h
[3] = system: A549; assay: Cytotoxicity against human A549 cells after 6 days by MTT assay; settings: A549, 144 h
[4] = system: HT-29; assay: Cytotoxicity against human HT-29 cells after 6 days by MTT assay; settings: HT-29, 144 h

SMILES | IC50 [1] | IC50 [2] | IC50 [3] | IC50 [4]
CCCCCCCCC(=O)Oc1c(OC)cc2ccnc3c2c1N(C)C=C3 | 0.04 µg/mL (≈ 0.109 µM) | 33 µg/mL (≈ 89.6 µM) | 12 µg/mL (≈ 32.6 µM) | 3 µg/mL (≈ 8.14 µM)
CCCCCCCCCC(=O)Oc1c(OC)cc2ccnc3c2c1N(C)C=C3 | 0.03 µg/mL (≈ 0.0784 µM) | 20 µg/mL (≈ 52.3 µM) | 6.1 µg/mL (≈ 15.9 µM) | 2.5 µg/mL (≈ 6.54 µM)
CCCCCCCCCCCC(=O)Oc1c(OC)cc2ccnc3c2c1N(C)C=C3 | 0.03 µg/mL (≈ 0.0731 µM) | 20 µg/mL (≈ 48.7 µM) | 3.7 µg/mL (≈ 9.01 µM) | 2.5 µg/mL (≈ 6.09 µM)
COc1cc2c3c(ccnc3c1OC)N(C(C)=O)CC2 | 2.6 µg/mL (≈ 9.55 µM) | 32 µg/mL (≈ 118 µM) | 20 µg/mL (≈ 73.4 µM) | 17 µg/mL (≈ 62.4 µM)
CCCCCC(=O)N1CCc2cc(OC)c(OC)c3nccc1c23 | 3.7 µg/mL (≈ 11.3 µM) | > 50 µg/mL | > 50 µg/mL | > 50 µg/mL
COc1cc2ccnc3c2c(c1OC(C)=O)N(C)C=C3 | 4.2 µg/mL (≈ 15.5 µM) | > 50 µg/mL | > 50 µg/mL | > 50 µg/mL
CCCCCCCCCCCCCCCCCC(=O)N1CCc2cc(OC)c(OC)c3nccc1c23 | 2.7 µg/mL (≈ 5.44 µM) | 20 µg/mL (≈ 40.3 µM) | > 50 µg/mL | > 50 µg/mL
CCC(=O)Oc1c(OC)cc2ccnc3c2c1N(C)C=C3 | 1.4 µg/mL (≈ 4.92 µM) | 28 µg/mL (≈ 98.5 µM) | 18 µg/mL (≈ 63.3 µM) | 13 µg/mL (≈ 45.7 µM)
CCCCCC(=O)Oc1c(OC)cc2ccnc3c2c1N(C)C=C3 | 0.7 µg/mL (≈ 2.14 µM) | 33 µg/mL (≈ 101 µM) | 13 µg/mL (≈ 39.8 µM) | 12 µg/mL (≈ 36.8 µM)
CCCCCCCC(=O)Oc1c(OC)cc2ccnc3c2c1N(C)C=C3 | 1.5 µg/mL (≈ 4.23 µM) | 15 µg/mL (≈ 42.3 µM) | 14 µg/mL (≈ 39.5 µM) | 12 µg/mL (≈ 33.9 µM)
CCCCCCC(=O)Oc1c(OC)cc2ccnc3c2c1N(C)C=C3 | 0.7 µg/mL (≈ 2.06 µM) | 38 µg/mL (≈ 112 µM) | 11 µg/mL (≈ 32.3 µM) | 13 µg/mL (≈ 38.2 µM)
CCCCC(=O)Oc1c(OC)cc2ccnc3c2c1N(C)C=C3 | 1.8 µg/mL (≈ 5.76 µM) | 35 µg/mL (≈ 112 µM) | 13 µg/mL (≈ 41.6 µM) | 9 µg/mL (≈ 28.8 µM)
CCCCCCCCCCCCCCCCCC(=O)Oc1c(OC)cc2ccnc3c2c1N(C)C=C3 | 1.1 µg/mL (≈ 2.22 µM) | > 50 µg/mL | > 50 µg/mL | 21 µg/mL (≈ 42.4 µM)
CCCCCCCCCCCC(=O)N1CCc2cc(OC)c(OC)c3nccc1c23 | 0.1 µg/mL (≈ 0.242 µM) | 7.8 µg/mL (≈ 18.9 µM) | 5.6 µg/mL (≈ 13.6 µM) | 9.6 µg/mL (≈ 23.3 µM)
CCCCCCCCCCCCCC(=O)Oc1c(OC)cc2ccnc3c2c1N(C)C=C3 | 0.3 µg/mL (≈ 0.684 µM) | 3.3 µg/mL (≈ 7.52 µM) | 5.6 µg/mL (≈ 12.8 µM) | 2.7 µg/mL (≈ 6.16 µM)
CCCCCCCCCCCCCCCC(=O)Oc1c(OC)cc2ccnc3c2c1N(C)C=C3 | 0.1 µg/mL (≈ 0.214 µM) | 8 µg/mL (≈ 17.1 µM) | 7.3 µg/mL (≈ 15.6 µM) | 9 µg/mL (≈ 19.3 µM)
COc1cc2ccnc3c2c(c1OC)NC=C3 [AAPTAMINE] | 0.6 µg/mL (≈ 2.63 µM) | 3.9 µg/mL (≈ 17.1 µM) | 2.8 µg/mL (≈ 12.3 µM) | 6.9 µg/mL (≈ 30.2 µM)
COC1=Cc2ccnc3c2C1=C(OC)NC=C3 [AAPTOSINE] | – | – | > 50 µg/mL | > 50 µg/mL
COC1=Cc2ccnc3ccnc(c23)C1=O [DEMETHYLOXY-AAPTAMINE] | 0.01 µg/mL (≈ 0.0471 µM) | 0.1 µg/mL (≈ 0.471 µM) | 0.3 µg/mL (≈ 1.41 µM) | –
COc1cc2c3c(ccnc3c1OC)NCC2 [DIHYDROAAPTAMINE] | 1.8 µg/mL (≈ 7.82 µM) | 22 µg/mL (≈ 95.5 µM) | 23 µg/mL (≈ 99.9 µM) | 47 µg/mL (≈ 204 µM)
COc1cc2ccnc3c2c(c1O)N(C)C=C3 [ISOAAPTAMINE] | 0.04 µg/mL (≈ 0.175 µM) | 0.4 µg/mL (≈ 1.75 µM) | 0.3 µg/mL (≈ 1.31 µM) | 0.4 µg/mL (≈ 1.75 µM)
